# Measured values as given in patent US8895504B2, “Amylin derivatives” (priority 2008, dated 2014).
# *1 amine or outer side, *2 acyl side, *3 side chain or, on linkers, in order; H or OH if unused. Where a SMILES comes first, the peptide text is derived from it. Bridges are numbered along the chain shown (N, C = ends). Side-chain parts run from the residue outwards. The star is where a group is joined. C20 diacid = O=C(O)CCCCCCCCCCCCCCCCCCC(=O)*; γGlu = O=C(O)[C@H](CCC(=O)[*:2])N[*:1]; AEEA = NCCOCCOCC(=O)O
# Experiments:
# [1] = target: T1, Amylin 3(a) receptor (human calcitonin receptor (CTa) and RAMP-3) (Homo sapiens, UniProt O60896+P30988); experiment: Luciferase assay (III), BHK Amylin 3(a)//CRE-luc cells; format: cell-based; conditions: BHK cells with Amylin 3(a) receptor and CRE luciferase reporter, 4 hours incubation; read-out: Potency Luciferase
# T1 construct: expressed in transfected cells; host or cells: BHK570 cells, stably transfected with a CRE-luciferase reporter
# Procedure, shortened: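 BHK570 cells stably expressing CTa, RAMP-3 and a CRE-luciferase reporter, seeded at about 20,000 cells/well and grown overnight. Cells were exposed to standard or sample for 4 h at 37° C in phenol red-free DMEM with 10% FBS and 10 mM Hepes, pH 7,4. Luminescence was read after 30 min LucLite at room temperature.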
# [2] = test system: food intake; experiment: Pharmacological Assay (I) - efficacy testing on appetite, ad libitum fed rat model; format: in vivo, Sprague Dawley (SD) rats; conditions: 30 nmol/kg vs vehicle, ad libitum fed rats, n=5-7, 0-48 hours
# Source text: Assays Pharmacological Assay (I)—Experimental Protocol for Efficacy Testing on Appetite with an Amylin Derivative, Using an Ad Libitum Fed Rat Model. Sprague Dawley (SD) rats from Taconic Europe, Denmark are used for the experiments. The rats have a body weight 200-250 g at the start of experiment. The rats arrive at least 10-14 days before start of experiment to allow acclimatization to experimental settings. During this period the animals are handled at least 2 times. After arrival rats are housed individually for one week in a reversed light/dark phase (meaning that lights are off during daytime and on during nighttime) for two weeks. Since rats are normally active and eat their major part of their daily food intake during the dark period, rats are dosed in the morning right before lights are turned off. This set-up results in the lowest data variation and highest test sensitivity. The experiment is conducted in the rats' home cages and rats have free access to food and water throughout the acclimatization period and the experiment period. Each dose of derivative is tested in a group of 5-8 rats. A vehicle group of 6-8 rats is included in each set of testing. Rats are dosed once according to body weight with a 0.01-3 mg/kg solution administered intraperitoneally (ip), orally (po) or subcutaneously (sc). The time of dosing is recorded for each group. After dosing, the rats are returned to their home cages, where they then have access to food and water. The food consumption is recorded individually continuously by on-line registration or manually every hour for 7 hours, and then after 24 h and sometimes 48 h. At the end of the experimental session, the animals are euthanized. The individual data are recorded in Microsoft excel sheets. Outliers are excluded after applying the Grubbs statistical evaluation test for outliers, and the result is presented graphically using the GraphPad Prism program.
# [3] = Assay (V) PK - determination of T½ in mini-pig; format: in vivo; conditions: minipig, sc; terminal plasma half-life, subcutaneous, approx 2 nmol/kg, male Göttingen mini-pigs
# Method: Assay (V) PK—Determination OF T½ in Mini-Pig
# T½ is the terminal half-life=ln 2/λz of a compound in plasma. λz is the first order rate constant associated with the terminal (log-linear) portion of the plasma concentration-time curve and is estimated by linear regression of time vs. log concentration.
# T½ values of the amylin analogues of the invention is determined by pharmacokinetic studies in male Göttingen mini-pigs from Ellegaard Göttingen Minipigs ApS and the principles of laboratory animal care are followed.
# An acclimatization period of approximately 6-10 days was allowed before the animals entered the study. At start of the acclimatization period the mini-pigs were about 5 to 12 months old and in the weight range of 7-35 kg. The mini-pigs had two central venous catheters inserted which were used for blood sampling.
# The studies were conducted in an animal room which was illuminated to give a cycle of approx 12 hours light and 12 hours darkness. The animals were housed individually.
# The animals had free access to domestic quality drinking water during the study, but were typically fasted from overnight before dosing until approx 6-12 hours after dosing. The animals were weighed on arrival and on the days of dosing.
# In the present studies the test substances were administered subcutaneously in approx 2 nmol/kg dose. The animals received a single subcutaneous injection. The subcutaneous injection was given on the right side of the neck, approximately 5-7 cm from the ear and 7-9 cm from the middle of the neck. The injections were given with a stopper on the needle, allowing approx 0.5 cm of the needle to be introduced. Each test substance was given to typically three but in some cases two or four animals.
# A full plasma concentration-time profile, employing 12-16 sampling points, was obtained from each animal. In example blood samples were collected according to the following schedule:
# After subcutaneous administration:
# Predose (0), 0.5, 1, 2, 4, 6, 8, 12, 24, 48, 72, 96, 120, 168 and 240 hours after injection. In some cases also additional blood samples up to 288 hours post injection were taken.
# At each sampling time, 0.5 to 2 ml of blood was drawn from each animal. The blood samples were taken via the central venous catheter.
# The blood samples were collected into EDTA test tubes (i.e. Sarstedt Micro tube 1.3 mL K3E). Blood samples were kept on ice for max 20 min. before centrifugation. Plasma was separated using centrifugation (i.e. at 4° C., 10 min., 1500 G) and was immediately transferred to Micronic tubes. Approximately 200 μl plasma was transferred to each Micronic tube. The plasma was stored at −20° C. until assayed. The plasma samples were assayed for the content of amylin using an ELISA assay.
# The plasma concentration-time profiles were analysed by a non-compartmental pharmacokinetic analysis (NCA) using WinNonlin Professional 5.0 (Pharsight Inc., Mountain View, Calif., USA). NCA was performed using the individual plasma concentration-time profiles from each animal. T½ is the terminal half-life=ln 2/λz and was determined from λz, the first order rate constant associated with the terminal (log-linear) portion of the curve, estimated by linear regression of time vs. log concentration.
# ELISA Plasma Assay for Amylin Quantification
# The human amylin ELISA is a monoclonal antibody-based sandwich immunoassay for determining amylin levels in human plasma. The capture antibody recognizes human amylin, amylin acid (deamidated amylin), a 1-20 fragment of amylin, but not reduced amylin.
# The detection antibody binds to reduced or unreduced human amylin but not amylin acid and is complexed with streptavidin-alkaline phosphatase. The substrate, 4-methylumbelliferyl phosphate, is applied to the completed sandwich and the fluorescent signal, monitored at 355 nm/460 nm, is proportional to the amount of amylin present in the sample.
# T1 sequence (O60896 24-148): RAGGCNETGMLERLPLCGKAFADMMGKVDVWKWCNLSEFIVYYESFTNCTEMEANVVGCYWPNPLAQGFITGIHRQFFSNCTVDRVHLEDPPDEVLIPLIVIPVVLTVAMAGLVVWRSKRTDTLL
# T1 sequence (P30988 25-474): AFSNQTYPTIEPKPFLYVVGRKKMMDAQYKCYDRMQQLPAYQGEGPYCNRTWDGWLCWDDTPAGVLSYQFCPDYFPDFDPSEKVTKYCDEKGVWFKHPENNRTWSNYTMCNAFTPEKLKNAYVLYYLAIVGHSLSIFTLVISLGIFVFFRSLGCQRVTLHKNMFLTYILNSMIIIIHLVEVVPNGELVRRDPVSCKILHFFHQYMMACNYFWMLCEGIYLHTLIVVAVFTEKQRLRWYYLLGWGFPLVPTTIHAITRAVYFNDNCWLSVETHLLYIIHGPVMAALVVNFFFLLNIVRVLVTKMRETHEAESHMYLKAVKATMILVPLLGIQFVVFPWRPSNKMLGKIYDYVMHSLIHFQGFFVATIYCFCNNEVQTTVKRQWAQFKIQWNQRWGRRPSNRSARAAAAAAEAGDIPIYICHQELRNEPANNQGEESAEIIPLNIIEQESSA
EC50 [1],half-life [3],SMILES,food intake over a period of 48 hours [2]
0.4 nM,–,"CC[C@H](C)[C@H](NC(=O)[C@@H]1CCCN1C(=O)CNC(=O)[C@H](Cc1ccccc1)NC(=O)[C@H](CC(N)=O)NC(=O)[C@H](CC(=O)O)NC(=O)[C@H](CO)NC(=O)[C@H](CO)NC(=O)[C@H](Cc1c[nH]cn1)NC(=O)[C@H](Cc1c[nH]cn1)NC(=O)[C@H](CC(C)C)NC(=O)[C@H](Cc1ccccc1)NC(=O)[C@H](CC(N)=O)NC(=O)[C@H](C)NC(=O)[C@H](CC(C)C)NC(=O)[C@H](CCCNC(=N)N)NC(=O)[C@H](CCC(N)=O)NC(=O)[C@@H](NC(=O)[C@H](C)NC(=O)[C@@H]1CSSC[C@H](NC(=O)[C@@H](N)CCCCN)C(=O)N[C@@H](CCCCNC(=O)COCCOCCNC(=O)[C@H](CCC(=O)O)NC(=O)[C@H](CCC(=O)O)NC(=O)CCCCCCCCCCCCCCCCCCC(=O)O)C(=O)N[C@@H]([C@@H](C)O)C(=O)N[C@@H](C)C(=O)N[C@@H]([C@@H](C)O)C(=O)N1)[C@@H](C)O)C(=O)N[C@@H](CC(C)C)C(=O)N1CCC[C@H]1C(=O)N1CCC[C@H]1C(=O)N[C@H](C(=O)N[C@@H](CC(N)=O)C(=O)N[C@H](C(=O)NCC(=O)N[C@@H](CO)C(=O)N[C@@H](CC(N)=O)C(=O)N[C@H](C(=O)N[C@@H](Cc1ccc(O)cc1)C(N)=O)[C@@H](C)O)C(C)C)[C@@H](C)O [Example 3, N-epsilon3-{2-[2-(2-{(S)-4-Carboxy-2-[(S)-4-carboxy-2-(19-carboxynonadecanoylamino)butyrylamino]butyrylamino}ethoxy)ethoxy]acetyl}-[Lys3,His17,Asp21]-pramlintide] (H-KCK([AEEA-Glu-Glu-C20 diacid])TATCATQRLANFLHHSSDNFGPILPPTNVGSNTY-NH2; disulfide 2-7)",effectively reducing food intake
0.1 nM,53 h,"CC[C@H](C)[C@H](NC(=O)[C@@H]1CCCN1C(=O)CNC(=O)[C@H](Cc1ccccc1)NC(=O)[C@H](CC(N)=O)NC(=O)[C@H](CC(N)=O)NC(=O)[C@H](CO)NC(=O)[C@H](CO)NC(=O)[C@H](Cc1c[nH]cn1)NC(=O)[C@H](CCCNC(=N)N)NC(=O)[C@H](CC(C)C)NC(=O)[C@H](Cc1ccccc1)NC(=O)[C@H](CC(N)=O)NC(=O)[C@H](C)NC(=O)[C@H](CC(C)C)NC(=O)[C@H](CCCNC(=N)N)NC(=O)[C@H](CCC(N)=O)NC(=O)[C@@H](NC(=O)[C@H](C)NC(=O)[C@@H]1CSSC[C@H](NC(=O)[C@H](CCCCN)NC(=O)[C@H](CCCNC(=N)N)NC(=O)COCCOCCNC(=O)CC[C@H](NC(=O)CCCCCCCCCCCCCCCCCCC(=O)O)C(=O)O)C(=O)N[C@@H](CC(N)=O)C(=O)N[C@@H]([C@@H](C)O)C(=O)N[C@@H](C)C(=O)N[C@@H]([C@@H](C)O)C(=O)N1)[C@@H](C)O)C(=O)N[C@@H](CC(C)C)C(=O)N1CCC[C@H]1C(=O)N1CCC[C@H]1C(=O)N[C@H](C(=O)N[C@@H](CC(N)=O)C(=O)N[C@H](C(=O)NCC(=O)N[C@@H](CO)C(=O)N[C@@H](CC(N)=O)C(=O)N[C@H](C(=O)N[C@@H](Cc1ccc(O)cc1)C(N)=O)[C@@H](C)O)C(C)C)[C@@H](C)O [Example 23, N-alpha-[2-(2-{2-[4-(S)-Carboxy-4-(19-carboxynonadecanoylamino)butyrylamino]ethoxy}ethoxy)acetyl]-Arg-[Arg17]-pramlintide] ({C20 diacid-γGlu-AEEA}-RKCNTATCATQRLANFLRHSSNNFGPILPPTNVGSNTY-NH2; disulfide 3-8)",–
0.1 nM,31 h,"CC[C@H](C)[C@H](NC(=O)[C@@H]1CCCN1C(=O)CNC(=O)[C@H](Cc1ccccc1)NC(=O)[C@H](CC(N)=O)NC(=O)[C@H](CC(N)=O)NC(=O)[C@H](CO)NC(=O)[C@H](CO)NC(=O)[C@H](Cc1c[nH]cn1)NC(=O)[C@H](Cc1c[nH]cn1)NC(=O)[C@H](CC(C)C)NC(=O)[C@H](Cc1ccccc1)NC(=O)[C@H](CC(N)=O)NC(=O)[C@H](C)NC(=O)[C@H](CC(C)C)NC(=O)[C@H](CCCNC(=N)N)NC(=O)[C@H](CCC(N)=O)NC(=O)[C@@H](NC(=O)[C@H](C)NC(=O)[C@@H]1CSSC[C@H](NC(=O)[C@H](CCCCN)NC(=O)[C@H](CCCNC(=N)N)NC(=O)[C@H](Cc2c[nH]cn2)NC(=O)CC[C@H](NC(=O)CCCCCCCCCCCCCCCCCCC(=O)O)C(=O)O)C(=O)N[C@@H](CC(N)=O)C(=O)N[C@@H]([C@@H](C)O)C(=O)N[C@@H](C)C(=O)N[C@@H]([C@@H](C)O)C(=O)N1)[C@@H](C)O)C(=O)N[C@@H](CC(C)C)C(=O)N1CCC[C@H]1C(=O)N1CCC[C@H]1C(=O)N[C@H](C(=O)N[C@@H](CC(N)=O)C(=O)N[C@H](C(=O)NCC(=O)N[C@@H](CO)C(=O)N[C@@H](CC(N)=O)C(=O)N[C@H](C(=O)N[C@@H](Cc1ccc(O)cc1)C(N)=O)[C@@H](C)O)C(C)C)[C@@H](C)O [Example 40, N-alpha-[(S)-4-Carboxy-4-(19-carboxynonadecanoylamino)butyryl]-His-Arg-[His17]-pramlintide] ({C20 diacid-γGlu}-HRKCNTATCATQRLANFLHHSSNNFGPILPPTNVGSNTY-NH2; disulfide 4-9)",–
